Reference: patent publication US20030143559A1, “Novel estrogen receptor ligand binding domain variants and novel ligands and pharmaceutical compositions” (priority 2001, published 2003)
Residue numbers refer to the chain shown, from its start. Several values for one entry are separate records, joined by “and”; a condition that tells them apart may be missing. Identical values can stand only once.

Legend:
[1] = molecular target: T1, ER-LBD 421V/428A (Homo sapiens, UniProt P03372, L428A/M421V); test: ER-LBD 421V/428A transactivation, cotransfection luciferase reporter assay in HeLa cells; type: cell-based; settings: p6x2C7Luc reporter, 0.003 to 1000 nM, mean of two or more experiments, read-out: EC50 ± STDEV
T1 construct: expressed in transfected cells; host or cells: HeLa
T1 sequence (P03372 311-547 M421V/L428A): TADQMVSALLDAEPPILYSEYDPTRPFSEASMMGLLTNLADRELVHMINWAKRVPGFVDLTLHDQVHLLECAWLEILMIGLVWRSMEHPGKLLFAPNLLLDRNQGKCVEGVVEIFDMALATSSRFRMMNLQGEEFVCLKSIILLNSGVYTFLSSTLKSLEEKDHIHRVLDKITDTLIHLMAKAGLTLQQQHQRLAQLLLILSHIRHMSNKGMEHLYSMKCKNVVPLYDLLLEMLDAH
Protocol: (§1) In order to evaluate the ability of the fusion proteins C7LBD A, B, and the related LBD mutants to regulate transgene expression, a standard co-transfection reporter assay was performed. A reporter construct, henceforth known as 6×2C7pGL3Luc, containing six copies of a directly repeated C7 binding site (6×2C7) inserted upstream of an SV40 promoter fragment and reporter gene encoding firefly luciferase (pGL3Pro; Promega) was transfected along with the designated fusion protein and assayed as described below. Note the consensus C7 binding site is 5′-GCG TGG GCG-3′.
(§2) Cultured cells (HeLa, Cos, Hep3B or other) were seeded at 5×10^4 cells/well in a 24 well plate prior to the day of transfection in DMEM Phenol-free media, supplemented with L-glutamine and 5% (v/v) charcoal-dextran stripped Fetal Bovine serum (sFBS). Cells were transfected using the Qiagen Superfect Transfection method. For each well 1 μg of total DNA, containing 0.5 μg luciferase reporter plasmid (6×2C7pGL3Luc), 0.1 μg of chimeric activator DNA (e.g., C7LBDA, C7LBDB, or mutants thereof ), and 0.4 μg of an inert carrier plasmid DNA (p3Kpn), was mixed with 60 μL of DMEM phenol-free/serum free media, and 5 μL of Superfect reagent. In general, about 10 ng to about 0.5 μg of chimeric activator DNA was used for each well. […]

[2] = molecular target: T2, wild-type ER (Homo sapiens, UniProt P03372); test: Inhibition of E2 activity on wild-type ER, COS-7 cells with pHEGO and ERE luciferase reporter; type: cell-based; settings: IC50 ± STDEV, pHEGO and pERETkLuc, E2 (3 nM) + 0.1 to 1000 nM compound
T2 construct: expressed in transfected cells; host or cells: COS-7
T2 sequence (P03372 1-595): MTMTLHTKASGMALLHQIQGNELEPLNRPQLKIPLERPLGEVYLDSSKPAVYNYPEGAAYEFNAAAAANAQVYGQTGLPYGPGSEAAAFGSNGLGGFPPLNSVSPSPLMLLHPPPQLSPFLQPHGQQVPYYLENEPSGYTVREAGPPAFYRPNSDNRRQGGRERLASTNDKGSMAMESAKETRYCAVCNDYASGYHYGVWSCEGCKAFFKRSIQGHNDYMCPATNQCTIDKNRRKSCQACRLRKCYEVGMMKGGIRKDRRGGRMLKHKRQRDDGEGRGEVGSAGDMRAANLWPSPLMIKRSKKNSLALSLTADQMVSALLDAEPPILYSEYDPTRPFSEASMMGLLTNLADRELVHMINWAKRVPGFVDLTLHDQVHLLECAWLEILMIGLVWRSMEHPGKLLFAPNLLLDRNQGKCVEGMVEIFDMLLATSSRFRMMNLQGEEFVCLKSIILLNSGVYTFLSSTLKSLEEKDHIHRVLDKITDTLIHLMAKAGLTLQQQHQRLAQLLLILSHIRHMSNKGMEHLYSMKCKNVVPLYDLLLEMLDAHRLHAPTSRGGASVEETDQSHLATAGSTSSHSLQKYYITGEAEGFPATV
Protocol: For transfection, 0.5 microgram of pERE2tkluc reporter plasmid, 20 ng of pHEGO, and 0.5 microgram of pCIneo inert carrier DNA were combined with 60 microliter serum-free DMEM and 5 microliter Qiagen Superfect transfection reagent, vortexed for 10s, and set at room temperature for 10 min. Each sample was diluted with 350 microliters of steroid-free media, mixed, and added to each well. Following 2 hr 30 min incubation at 37° C., cells were washed once with Dulbecco's phosphate buffered saline (DPBS), and refed with steroid-free media. […] Approximately 24 hr after treatment, cells were washed once with DPBS, then 200 microliter of reporter lysis buffer was added per well and frozen at −80° C. Cells were thawed at room temperature on an orbital shaker for 1 hr 30 min. A 10 microliter aliquot of lysate was transferred to 96 well opaque plates, and relative luciferase units (RLU) determined on a luminometer using the appropriate firefly luciferase substrate.
Note that the nonspecific activity is a noncompetable element in the assay system.
In order to dissolve them completely, all the solutions were warmed in 55° C. or boiled water bath for 10 to 20 min before use. The DMSO in cell culture medium was maintained to 0.01% for all the drug concentration tested as well as the vehicle control.

[3] = molecular target: T3, ER-LBD 388V/424Y/428A (Homo sapiens, UniProt P03372, I424Y/L428A/M388V); test: ER-LBD 388V/424Y/428A transactivation, cotransfection luciferase reporter assay in HeLa cells; type: cell-based
T3 construct: expressed in transfected cells; host or cells: HeLa
T3 sequence (P03372 311-547 M388V/I424Y/L428A): T1 sequence (P03372 311-547 M421V/L428A) with M78V, V111M, I114Y
Protocol: as §1, §2

[4] = molecular target: T4, Av3-388V/424Y/428A (Homo sapiens, UniProt P03372, I424Y/L428A/M388V); test: Transactivation on adenoviral (Av3)-delivered ER variant, luciferase in HeLa cells; type: cell-based; settings: 100 nM test compound, 24 hrs (FIG. 5)
T4 construct: fragment B=ER amino acids 258-554; expressed in transfected cells; host or cells: HeLa cells transduced with Av3 or gutless adenoviral vector
T4 sequence (P03372 258-554 M388V/I424Y/L428A): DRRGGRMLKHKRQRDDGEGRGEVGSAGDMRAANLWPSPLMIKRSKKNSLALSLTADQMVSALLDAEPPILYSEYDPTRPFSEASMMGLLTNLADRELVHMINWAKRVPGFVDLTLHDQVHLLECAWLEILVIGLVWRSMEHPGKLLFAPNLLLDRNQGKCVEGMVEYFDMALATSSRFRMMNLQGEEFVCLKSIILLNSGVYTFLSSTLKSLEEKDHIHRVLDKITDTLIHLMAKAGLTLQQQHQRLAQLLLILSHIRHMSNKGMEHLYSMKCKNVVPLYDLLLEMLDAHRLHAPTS
Excerpt: Xu et al., Molecular Therapy, 3:262-273, 2000.

[5] = molecular target: T5, 388V-424Y-428A transcription factor (Homo sapiens, UniProt P03372, I424Y/L428A/M388V); test: In vitro inducible luciferase expression with gutless adenoviral transcription factor vector in Hela cells; type: cell-based
T5 construct: fragment B=ER amino acids 258-554; expressed in transfected cells; host or cells: HeLa cells transduced with Av3 or gutless adenoviral vector
T5 sequence (P03372 258-554 M388V/I424Y/L428A): T4 sequence (P03372 258-554 M388V/I424Y/L428A)

[6] = molecular target: T6, 388V-424Y-428A transcription factor system (Homo sapiens, UniProt P03372, I424Y/L428A/M388V); test: In vivo regulation of endostatin transgene, gutless vectors, serum endostatin ELISA; parameters: species or system C57BL/6 mice; settings: 50 ug/animal IP; for Endostatin Levels: vectors 5×10^10 particles/mouse each, n = 3
T6 construct: fragment B=ER amino acids 258-554; expressed in transfected cells; host or cells: HeLa cells transduced with Av3 or gutless adenoviral vector
T6 sequence (P03372 258-554 M388V/I424Y/L428A): T4 sequence (P03372 258-554 M388V/I424Y/L428A)
Protocol: To address this issue of sustained induction, a second in vivo study was performed.

[7] = molecular target: T7, Av3-421/428 (Homo sapiens, UniProt P03372, L428A/M421V); test: Transactivation on adenoviral (Av3)-delivered ER variant, luciferase in HeLa cells
T7 sequence (P03372 258-554 M421V/L428A): T4 sequence (P03372 258-554 M388V/I424Y/L428A) with V131M, M164V, Y167I
Excerpt: For example, the ER LBD mutants of the present invention were constructed into a replication defective adenoviral vector (Av3) backbone DNA sequence so that this regulatory system could be delivered into cells for clinical application and testing. An Av3 vector containing a series of C7 binding sites linked to an SV40 minimal promoter and luciferase transgene (C7-SV40-luc) was also constructed and delivered simultaneously with each of the Av3 ER LBD mutant vectors. The cells were then exposed to the corresponding ligand to test the capability of the adenoviral-delivered ER mutants to respond to their corresponding ligands and then mediate the transcription of the luciferase transgene in the context of an adenoviral vector. […] Xu et al., Molecular Therapy, 3:262-273, 2000.

Row | Compound | EC50 [1] [nM] | IC50 [2] [nM] | melting point [°C] | EC50 ([3]; HeLa cells cotransfected with pC7ERLBD 388V/424Y/428A and p6x2C7Luc, 0.1 to 1000 nM, mean of two or more experiments, read-out: EC50 ± STDEV) | sensitivity of mutant ER LBD 388V/424Y/428A to LBB 938 relative to estrogen ([3]; ratio of EC50 values) | luciferase activity over the basal level [4] [fold] | Fold Induction ([5]; 100 nM ligand vs without ligand) [fold] | Luciferase Expression Levels (Relative Light Units) ([5]; (+) induced with 100 nM ligand, mean +/− standard error (n = 4)) | endostatin expression, result in words [6] | Endostatin Levels ([6]; Day 1) [ng/mL] | Endostatin Levels ([6]; Day 3) [ng/mL] | Endostatin Levels ([6]; Day 7) [ng/mL] | response relative to basal activity / fold induction ([7]; 100 nM test compound, 24 hrs (FIG. 5)) | fold induction at 0.1 µM ([7]; read-out: response relative to basal activity / fold induction)
1 | COC(=O)NC/C(=C(/c1ccc(O)cc1)c1ccc(OCCN(C)C)cc1)c1ccccc1 [LBB551, Carbamic acid, [(2Z)-3-[4-[2-(dimethylamino)ethoxy]phenyl]-3-(4-hydroxyphenyl)-2-phenyl-2-propenyl]-, methyl ester] | 4.89 | 955 | 122 to 123 | – | – | – | – | – | – | – | – | – | – | –
2 | CN(C)CCOc1ccc(/C(=C(/CC2CC3CCC2C3)c2ccccc2)c2ccc(O)cc2)cc1 (stereo not drawn) [LBB938, 4-((1Z))-3-bicyclo[hept-2-yl-1-{4-[2-(dimethylamino)ethoxy]phenyl}-2-phenylprop-1-enyl)phenol] | – | 388 | – | 28.4 nM and ~28 nM | approximately eight | 19 | 90 | 3284939 +/− 116076 Relative Light Units | induce endostatin expression | 6074 ± 3536 | 2332 ± 333 | 600 ± 72 | – | –
3 | COC(=O)NC/C(=C(\c1ccc(O)cc1)c1ccc(OCCN(C)C)cc1)c1ccccc1 [LBC081, Carbamic acid, [(2E)-3-[4-[2-(dimethylamino)ethoxy]phenyl]-3-(4-hydroxyphenyl)-2-phenyl-2-propenyl]-, methyl ester] | 11.7 | 845 | 161 to 162 | – | – | – | – | – | – | – | – | – | three | 3
